Columns and labels:
[1] = Solubility of the salt-forming type dyes (Tables 1-3); type: physicochemical; details: for Solubility, Ethanol: solvent: ethanol; for Solubility, Glycol ether: solvent: glycol ether
[2] = Solubility of the comparative dyes (Table 4), evaluation A-D; type: physicochemical; details: for Solubility, Glycol ether: solvent: glycol ether; for Solubility, Lower alcohol: solvent: lower alcohol; for Solubility, Water: solvent: water

Compound | Solubility, Water:Solvent = 2:8 [1] | Solubility, Ethanol [1] | Solubility, Glycol ether [1] | Solubility, Water:Solvent = 2:8 [2] | Solubility, Glycol ether [2] | Solubility, Lower alcohol [2] | Solubility, Water [2]
COc1cc(N=Nc2cccc(P(=O)(O)O)c2)c(C)cc1N=Nc1c(S(=O)(=O)O)cc2ccc(N)cc2c1O [Black No. 1] | 15 g/100 ml | 3 g/100 ml | 10 g/100 ml | – | – | – | –
COc1cc(N=Nc2cccc(P(=O)(O)O)c2)c(C)cc1N=Nc1c(S(=O)(=O)O)cc2ccc(N)cc2c1O [Black No. 2] | 10 g/100 ml | 5 g/100 ml | 15 g/100 ml | – | – | – | –
Nc1ccc2cc(S(=O)(=O)O)c(N=Nc3ccc(N=Nc4cccc(P(=O)(O)O)c4)c4ccc(S(=O)(=O)O)cc34)c(O)c2c1 [Black No. 3] | 20 g/100 ml | 5 g/100 ml | 30 g/100 ml | – | – | – | –
Nc1cc2c(O)c(N=Nc3ccc(N=Nc4cccc(P(=O)(O)O)c4)c4ccc(S(=O)(=O)O)cc34)c(S(=O)(=O)O)cc2cc1S(=O)(=O)O [Black No. 4] | 30 g/100 ml | 5 g/100 ml | 30 g/100 ml | – | – | – | –
Nc1cc2c(O)c(N=Nc3ccc(N=Nc4cccc(P(=O)(O)O)c4)c4ccc(S(=O)(=O)O)cc34)c(S(=O)(=O)O)cc2cc1S(=O)(=O)O [Black No. 5] | 10 g/100 ml | 10 g/100 ml | 30 g/100 ml | – | – | – | –
CC1(C)Nc2cccc3c(N=Nc4cc(S(=O)(=O)O)cc5cc(S(=O)(=O)O)c(N=Nc6cccc(P(=O)(O)O)c6)c(O)c45)ccc(c23)N1 [Black No. 6] | 10 g/100 ml | 10 g/100 ml | 15 g/100 ml | – | – | – | –
Nc1ccc2cc(S(=O)(=O)O)cc(O)c2c1N=Nc1cc(S(=O)(=O)O)cc2cc(S(=O)(=O)O)c(N=Nc3cccc(P(=O)(O)O)c3)c(O)c12 [Black No. 7] | 30 g/100 ml | 3 g/100 ml | 20 g/100 ml | – | – | – | –
Nc1ccc2cc(S(=O)(=O)O)c(N=Nc3ccc(N=Nc4cccc(P(=O)(O)O)c4)c4ccc(S(=O)(=O)O)cc34)c(O)c2c1 [Black No. 8] | 20 g/100 ml | 8 g/100 ml | 30 g/100 ml | – | – | – | –
Nc1c(N=Nc2cccc(P(=O)(O)O)c2)c(S(=O)(=O)O)cc2cc(S(=O)(=O)O)c(N=Nc3cccc(P(=O)(O)O)c3)c(O)c12 [Blue No. 1] | 30 g/100 ml | 3 g/100 ml | 25 g/100 ml | – | – | – | –
Nc1cc(S(=O)(=O)O)cc2cc(S(=O)(=O)O)c(N=Nc3ccc(N=Nc4cccc(P(=O)(O)O)c4)c4ccc(O)cc34)c(O)c12 [Blue No. 2] | 30 g/100 ml | 5 g/100 ml | 25 g/100 ml | – | – | – | –
COc1cc(N=Nc2cccc(P(=O)(O)O)c2)c(C)cc1N=Nc1c(S(=O)(=O)O)cc2cc(S(=O)(=O)O)cc(N)c2c1O [Blue No. 3] | 25 g/100 ml | 10 g/100 ml | 30 g/100 ml | – | – | – | –
O=P(O)(O)c1cccc(N=Nc2ccc(N=Nc3c(O)ccc4cc(S(=O)(=O)O)cc(S(=O)(=O)O)c34)cc2)c1 [Red No. 1] | 30 g/100 ml | 10 g/100 ml | 20 g/100 ml | – | – | – | –
CC(=O)Nc1cc(S(=O)(=O)O)cc2cc(S(=O)(=O)O)c(N=Nc3cccc(P(=O)(O)O)c3)c(O)c12 [Red No. 2] | 30 g/100 ml | 8 g/100 ml | 25 g/100 ml | – | – | – | –
O=P(O)(O)c1cccc(N=Nc2c(S(=O)(=O)O)cc3cc(Nc4ccc5c(O)c(N=Nc6cccc(P(=O)(O)O)c6)c(S(=O)(=O)O)cc5c4)ccc3c2O)c1 [Red No. 3] | 30 g/100 ml | 5 g/100 ml | 25 g/100 ml | – | – | – | –
Nc1cc(N=Nc2cccc(P(=O)(O)O)c2)c2c(O)cc(S(=O)(=O)O)cc2c1N=Nc1cccc(P(=O)(O)O)c1 [Red No. 4] | 30 g/100 ml | 3 g/100 ml | 30 g/100 ml | – | – | – | –
Cc1nn(-c2ccccc2)c(O)c1N=Nc1cccc(P(=O)(O)O)c1 [compound 1] | – | – | – | C (dissolved in an amount of 5% or less) | C (dissolved in an amount of 5% or less) | D (dissolved in an amount of 1% or less) | D (dissolved in an amount of 1% or less)
Cc1nn(-c2ccccc2)c(O)c1N=Nc1cccc(S(=O)(=O)O)c1 [compound 2] | – | – | – | C (dissolved in an amount of 5% or less) | B (dissolved in an amount of 5~10%) | C (dissolved in an amount of 5% or less) | D (dissolved in an amount of 1% or less)
Nc1cc(S(=O)(=O)O)cc2cc(S(=O)(=O)O)c(N=Nc3ccc(N=Nc4cccc(S(=O)(=O)O)c4)c4ccc(O)cc34)c(O)c12 [compound 3] | – | – | – | C (dissolved in an amount of 5% or less) | D (dissolved in an amount of 1% or less) | D (dissolved in an amount of 1% or less) | A (dissolved in an amount of 10% or more)
O=P(O)(O)c1cccc(N=Nc2ccc(N=Nc3c(O)ccc4cc(S(=O)(=O)O)cc(S(=O)(=O)O)c34)cc2)c1 [compound 4] | – | – | – | C (dissolved in an amount of 5% or less) | C (dissolved in an amount of 5% or less) | D (dissolved in an amount of 1% or less) | A (dissolved in an amount of 10% or more)
Nc1cc2c(O)c(N=Nc3ccc(N=Nc4cccc(P(=O)(O)O)c4)c4ccc(S(=O)(=O)O)cc34)c(S(=O)(=O)O)cc2cc1S(=O)(=O)O [compound 5] | – | – | – | D (dissolved in an amount of 1% or less) | C (dissolved in an amount of 5% or less) | D (dissolved in an amount of 1% or less) | A (dissolved in an amount of 10% or more)
Nc1cc2c(O)c(N=Nc3ccc(N=Nc4cccc(P(=O)(O)O)c4)c4ccc(S(=O)(=O)O)cc34)c(S(=O)(=O)O)cc2cc1S(=O)(=O)O [compound 6] | – | – | – | C (dissolved in an amount of 5% or less) | B (dissolved in an amount of 5~10%) | C (dissolved in an amount of 5% or less) | C (dissolved in an amount of 5% or less)
CC(=O)Nc1cc(S(=O)(=O)O)cc2cc(S(=O)(=O)O)c(N=Nc3cccc(P(=O)(O)O)c3)c(O)c12 [compound 7] | – | – | – | C (dissolved in an amount of 5% or less) | D (dissolved in an amount of 1% or less) | D (dissolved in an amount of 1% or less) | A (dissolved in an amount of 10% or more)
Nc1cc(S(=O)(=O)O)cc2cc(S(=O)(=O)O)c(N=Nc3ccc(N=Nc4cccc(S(=O)(=O)O)c4)c4ccccc34)c(O)c12 [compound 8] | – | – | – | D (dissolved in an amount of 1% or less) | B (dissolved in an amount of 5~10%) | C (dissolved in an amount of 5% or less) | D (dissolved in an amount of 1% or less)
